Data from ChEMBL document CHEMBL4828726, “Modification of 5-methylphenanthridium from benzothiazoles to indoles as potent FtsZ inhibitors: Broadening the antibacterial spectrum toward vancomycin-resistant enterococci” (Eur J Med Chem, 2021).
Calls of active or inactive are those of the source. No cut-off for these calls is given here.

Tests used:
[1] = tested on: Staphylococcus aureus; assay: Antibacterial activity against erythromycin-susceptible Staphylococcus aureus ATCC 25923 assessed as inhibition of bacterial growth measured after 20 hrs by two-fold microdilution assay; type: functional
[2] = tested on: Bacillus subtilis; assay: Bactericidal activity against penicillin-susceptible Bacillus subtilis ATCC 9372 assessed as inhibition of bacterial growth measured after 20 hrs by two-fold microdilution assay; type: functional
[3] = tested on: Bacillus subtilis; assay: Ratio of MBC to MIC against penicillin-susceptible Bacillus subtilis ATCC 9372; type: functional
[4] = tested on: Enterococcus faecalis; assay: Antibacterial activity against Vancomycin-resistant Enterococcus faecalis ATCC 51299 assessed as inhibition of bacterial growth measured after 20 hrs by two-fold microdilution assay; type: functional
[5] = tested on: Enterococcus faecium; assay: Antibacterial activity against Vancomycin-susceptible Enterococcus faecium ATCC 19434 assessed as inhibition of bacterial growth measured after 20 hrs by two-fold microdilution assay; type: functional
[6] = tested on: Staphylococcus aureus; assay: Antibacterial activity against methicillin-resistant Staphylococcus aureus ATCC43300 assessed as inhibition of bacterial growth measured after 20 hrs by two-fold microdilution assay; type: functional
[7] = tested on: Staphylococcus aureus; assay: Antibacterial activity against clinical isolate Staphylococcus aureus C1 assessed as inhibition of bacterial growth measured after 20 hrs by two-fold microdilution assay; type: functional
[8] = tested on: Staphylococcus aureus; assay: Ratio of MBC to MIC against erythromycin-susceptible Staphylococcus aureus ATCC 25923; type: functional
[9] = tested on: Staphylococcus aureus; assay: Bactericidal activity against erythromycin-susceptible Staphylococcus aureus ATCC 25923 assessed as inhibition of bacterial growth measured after 20 hrs by two-fold microdilution assay; type: functional
[10] = tested on: Pseudomonas aeruginosa; assay: Antibacterial activity against penicillin-susceptible Pseudomonas aeruginosa ATCC 27853 assessed as inhibition of bacterial growth measured after 20 hrs by two-fold microdilution assay; type: functional
[11] = tested on: Staphylococcus aureus; assay: Bactericidal activity against methicillin-resistant Staphylococcus aureus ATCC43300 assessed as inhibition of bacterial growth measured after 20 hrs by two-fold microdilution assay; type: functional
[12] = tested on: Bacillus pumilus; assay: Antibacterial activity against penicillin-susceptible Bacillus pumilus CMCC63202 assessed as inhibition of bacterial growth measured after 20 hrs by two-fold microdilution assay; type: functional
[13] = tested on: Bacillus pumilus; assay: Bactericidal activity against penicillin-susceptible Bacillus pumilus CMCC63202 assessed as inhibition of bacterial growth measured after 20 hrs by two-fold microdilution assay; type: functional
[14] = tested on: Staphylococcus aureus; assay: Ratio of MBC to MIC against penicillin-resistant Staphylococcus aureus ATCC 31007; type: functional
[15] = tested on: Staphylococcus aureus; assay: Bactericidal activity against penicillin-resistant Staphylococcus aureus ATCC 31007 assessed as inhibition of bacterial growth measured after 20 hrs by two-fold microdilution assay; type: functional
[16] = tested on: Staphylococcus epidermidis; assay: Antibacterial activity against penicillin-resistant Staphylococcus epidermidis assessed as inhibition of bacterial growth measured after 20 hrs by two-fold microdilution assay; type: functional
[17] = tested on: Staphylococcus aureus; assay: Antibacterial activity against Staphylococcus aureus ATCC 25923 assessed as fold change in MIC value measured after 14 passages by Multi passage resistance assay; type: functional, organism-based
[18] = tested on: Bacillus subtilis; assay: Antibacterial activity against penicillin-susceptible Bacillus subtilis ATCC 9372 assessed as inhibition of bacterial growth measured after 20 hrs by two-fold microdilution assay; type: functional
[19] = tested on: Enterococcus faecalis; assay: Antibacterial activity against Vancomycin-susceptible Enterococcus faecalis ATCC 29212 assessed as inhibition of bacterial growth measured after 20 hrs by two-fold microdilution assay; type: functional
[20] = tested on: Escherichia coli; assay: Antibacterial activity against penicillin-susceptible Escherichia coli ATCC 25922 assessed as inhibition of bacterial growth measured after 20 hrs by two-fold microdilution assay; type: functional
[21] = tested on: Staphylococcus aureus; assay: Antibacterial activity against Staphylococcus aureus ATCC 25923 infected in Kunming mouse assessed as decrease in viable bacterial in eye blood at 5 mg/kg, ip measured after 1 hr; type: functional, organism-based
[22] = Hemolytic activity against mouse RBC at 1 to 16 ug/ml measured after 1 hr by hemolysis assay relative to Triton X-100; type: ADME, cell-based, Erythrocyte; conditions: mouse red blood cells (erythrocytes), at 1 to 16 µg/mL, dose 1-16 µg/ml, read-out: Activity
[23] = tested on: Staphylococcus aureus; assay: Antibacterial activity against penicillin-resistant Staphylococcus aureus ATCC 31007 assessed as inhibition of bacterial growth measured after 20 hrs by two-fold microdilution assay; type: functional
[24] = tested on: Bacillus pumilus; assay: Inhibition of Bacillus pumilus CMCC63202 FtsZ assessed as aggregation of FtsZ at 10 ug/ml pre-incubated for 30 mins followed by addition of GTP and measured after 30 mins measured after by Transmission electron microscopic method; conditions: dose 10.0 µg/ml
[25] = tested on: Bacillus pumilus; assay: Inhibition of Bacillus pumilus CMCC63202 FtsZ assessed as change in morphology by measuring increase of cell length at 16 ug/ml measured after 20 hrs by optical microscopy; conditions: dose 16.0 µg/ml
[26] = biological target: T1, Cell division protein FtsZ (Bacillus subtilis (strain 168)) (UniProt P17865); assay: Inhibition of Bacillus subtilis FtsZ assessed as promotion of FtsZ polymerization measured after […] by fluorescence spectrometer based light scattering assay; conditions: dose 2.5-10 µg/ml
T1 sequence (whole entry): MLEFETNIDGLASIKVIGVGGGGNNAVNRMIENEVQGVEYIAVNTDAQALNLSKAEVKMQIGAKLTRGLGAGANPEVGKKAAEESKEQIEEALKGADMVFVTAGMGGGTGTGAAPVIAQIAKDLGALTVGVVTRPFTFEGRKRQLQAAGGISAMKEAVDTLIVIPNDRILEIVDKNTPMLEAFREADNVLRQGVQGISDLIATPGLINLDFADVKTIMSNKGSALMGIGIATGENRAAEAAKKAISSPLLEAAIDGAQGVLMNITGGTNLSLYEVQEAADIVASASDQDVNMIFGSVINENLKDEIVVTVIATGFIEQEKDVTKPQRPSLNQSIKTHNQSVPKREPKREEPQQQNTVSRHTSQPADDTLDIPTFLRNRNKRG

[27] = tested on: Pseudomonas aeruginosa; assay: Anti-biofilm activity against Pseudomonas aeruginosa ATCC 27853 assessed as inhibition of biofilm formation at 4 to 64 ug/ml measured after 20 hrs by crystal violet staining based biofilm formation inhibition assay; type: functional, organism-based; conditions: dose 4-64 µg/ml
[28] = tested on: Staphylococcus aureus; assay: Antibacterial activity against Staphylococcus aureus ATCC 25923 assessed as decrease of bacterial growth measured up to 24 hrs by Time kill assay; type: functional, organism-based; conditions: dose 4-32 µg/ml, time hrs <=24
[29] = tested on: Enterococcus faecium; assay: Antibacterial activity against Vancomycin-resistant Enterococcus faecium ATCC 51559 assessed as inhibition of bacterial growth measured after 20 hrs by two-fold microdilution assay; type: functional
[30] = tested on: Streptococcus pyogenes; assay: Antibacterial activity against erythromycin-susceptible Streptococcus pyogenes assessed as inhibition of bacterial growth measured after 20 hrs by two-fold microdilution assay; type: functional
[31] = tested on: Staphylococcus aureus; assay: Antibacterial activity against Staphylococcus aureus ATCC 25923 assessed as reduction of colony forming units at 4 to 64 ug/ml measured up to 24 hrs by Time kill assay; type: functional, organism-based; conditions: dose 4-64 µg/ml, time hrs <=24
[32] = tested on: Streptococcus pyogenes; assay: Antibacterial activity against erythromycin-resistant Streptococcus pyogenes assessed as inhibition of bacterial growth measured after 20 hrs by two-fold microdilution assay; type: functional
[33] = tested on: Staphylococcus aureus; assay: Antibacterial activity against Staphylococcus aureus ATCC 25923 infected in Kunming mouse assessed as decrease in viable bacterial in eye blood at 25 mg/kg, ip measured after 1 hr; type: functional, organism-based
[34] = tested on: Staphylococcus aureus; assay: Antibacterial activity against Staphylococcus aureus ATCC 25923 assessed as fold increase in MIC value measured after 1 passage by Multi passage resistance assay; type: functional
[35] = tested on: Enterococcus faecalis; assay: Bactericidal activity against Vancomycin-resistant Enterococcus faecalis ATCC 51299 assessed as inhibition of bacterial growth measured after 20 hrs by two-fold microdilution assay; type: functional
[36] = tested on: Enterococcus faecium; assay: Bactericidal activity against Vancomycin-susceptible Enterococcus faecium ATCC 19434 assessed as inhibition of bacterial growth measured after 20 hrs by two-fold microdilution assay; type: functional
[37] = tested on: Enterococcus faecalis; assay: Bactericidal activity against Vancomycin-susceptible Enterococcus faecalis ATCC 29212 assessed as inhibition of bacterial growth measured after 20 hrs by two-fold microdilution assay; type: functional
[38] = tested on: Enterococcus faecium; assay: Ratio of MBC to MIC against Vancomycin-susceptible Enterococcus faecium ATCC 19434; type: functional
[39] = tested on: Bacillus pumilus; assay: Ratio of MBC to MIC against penicillin-susceptible Bacillus pumilus CMCC63202; type: functional
[40] = tested on: Enterococcus faecium; assay: Bactericidal activity against Vancomycin-resistant Enterococcus faecium ATCC 51559 assessed as inhibition of bacterial growth measured after 20 hrs by two-fold microdilution assay; type: functional
[41] = tested on: Enterococcus faecalis; assay: Ratio of MBC to MIC against Vancomycin-susceptible Enterococcus faecalis ATCC 29212; type: functional
[42] = tested on: Enterococcus faecalis; assay: Ratio of MBC to MIC against Vancomycin-resistant Enterococcus faecalis ATCC 51299; type: functional
[43] = tested on: Enterococcus faecium; assay: Ratio of MBC to MIC against Vancomycin-resistant Enterococcus faecium ATCC 51559; type: functional
[44] = tested on: Staphylococcus aureus; assay: Ratio of MBC to MIC against methicilline-resistant Staphylococcus aureus ATCC43300; type: functional

SMILES	MIC [1] [µg/mL]	MBC [2] [µg/mL]	Ratio [3]	MIC [4] [µg/mL]	MIC [5] [µg/mL]	MIC [6] [µg/mL]	MIC [7] [µg/mL]	Ratio [8]	MBC [9] [µg/mL]	MIC [10] [µg/mL]	MBC [11] [µg/mL]	MIC [12] [µg/mL]	MBC [13] [µg/mL]	Ratio [14]	MBC [15] [µg/mL]	MIC [16] [µg/mL]	MIC [18] [µg/mL]	MIC [19] [µg/mL]	MIC [20] [µg/mL]	MIC [23] [µg/mL]	other results
Cc1cccc2c[n+](C)c3ccc(-c4ccc5ccn(Cc6ccccc6)c5c4)cc3c12.[Cl-]	1	16	4	16	8	2	2	32	32	> 64	64	4	> 64	16	64	8	4	8	> 64	4	Activity [17]: Active; Activity [21]: Active; hemolysis at 1 h [22]: < 8%; inhibition [24]: Active; inhibition [25]: Active; inhibition [26]: Active; Activity [27]: inactive; Activity [28]: Dose-Dependent Effect; MIC [29]: 8 µg/mL; MIC [30]: 8 µg/mL; Activity [31]: Active; MIC [32]: 8 µg/mL; Activity [33]: Active; fold change (FC) [34]: 2
Cc1ccc2c[n+](C)c3ccc(-c4ccc5ccn(Cc6ccc(C(F)(F)F)cc6)c5c4)cc3c2c1.[Cl-]	2	> 8	1	4	2	4	2	2	4	> 64	8	2	16	4	16	2	8	4	> 64	8	MBC [35]: 32 µg/mL; MBC [36]: 16 µg/mL; MBC [37]: 16 µg/mL; Ratio [38]: 8; Ratio [39]: 8; MBC [40]: 32 µg/mL; Ratio [41]: 4; Ratio [42]: 8; MIC [29]: 4 µg/mL; MIC [30]: 8 µg/mL; MIC [32]: 8 µg/mL
Cc1ccc2c[n+](C)c3ccc(-c4ccc5ccn(Cc6ccc(OC(F)(F)F)cc6)c5c4)cc3c2c1.[Cl-]	2	4	1	4	4	4	4	2	4	> 64	4	4	32	1	4	2	4	4	> 64	4	MBC [35]: 16 µg/mL; MBC [36]: 16 µg/mL; MBC [37]: 16 µg/mL; Ratio [38]: 4; Ratio [43]: 8; Ratio [39]: 8; MBC [40]: 32 µg/mL; Ratio [41]: 4; Ratio [44]: 1; MIC [29]: 4 µg/mL; MIC [30]: 8 µg/mL; MIC [32]: 8 µg/mL
